Data from paper PMC10600239, “Selective MCL-1 inhibitor ABBV-467 is efficacious in tumor models but is associated with cardiac troponin increases in patients” (Communications Medicine, 2023).
Values joined by “and” are separate entries in the source; they are usually repeats but may differ in a detail not shown here. Identical values can stand only once.

Tested on: OPM-2 xenografts
Assay: OPM-2 xenograft efficacy (tumor volume, body weight)
Type: in vivo, mouse
Conditions: for Tumor Volume (mm³) Day 27, Mean: group mean; for Tumor Volume (mm³) Day 27, Median: group median; for Tumor Volume (mm³) Day 27 / Tumor Volume (mm³) Day 30 / Tumor Volume (mm³) Day 34: individual animals; for Tumor Volume (mm³) Day 23 (individual animals) / Tumor Volume Day 23, Mean / Tumor Volume Day 23, Median / % T/C (mean) / % T/C (median): Day 23
Protocol: All animal studies were conducted in accordance with the guidelines approved by the Institutional Animal Care and Use Committees of AbbVie. The research protocol was approved by In Vivo Pharmacology at AbbVie prior to study initiation but was not publicly registered or disclosed. Female C.B-17 SCID-beige mice (AMO-1, OPM-2, NCI-H929, and OCI-AML2 xenografts) and female NSG mice (MV4-11-Red.Fluc systemic) were purchased from Charles River Laboratories (Wilmington, MA). Animals were housed in a light cycle-controlled room with HEPA filtration at 22 °C. Animals had nesting and climbing cage topper as the primary environmental enrichment. Animals were inoculated subcutaneously in the right flank with 5 × 10^6 (AMO-1, OPM-2, NCI-H929, and OCI-AML2) or intravenous (IV) with 5 × 10^6 (MV4-11-Red.Fluc). The inoculation volume (0.2 mL) comprised a 50:50 mixture of cells in growth media and Matrigel (BD Biosciences) for subcutaneous injections and 100% phosphate-buffered saline for IV administration. All cell lines used in this publication were authenticated using IDEXX for STR profiling as well as their IMPACT and human IMPACT panels for pathogen screening. Electronic calipers were used to measure the length and width of each tumor 2 to 3 times per week. Tumor volume was estimated by applying the following equation: volume = length × width^2/2. All groups remained blinded during measurements and dosing; only veterinary staff were aware of group identity. When tumors reached approximately 200 mm^3, mice were randomized by match and distributed into treatment and control groups. All xenograft trials were conducted using 5 to 10 mice per group, and all mice were ear tagged and monitored individually throughout the studies. Any animal with a tumor above 2000 mm^3 or 15% loss in body weight was euthanized and removed from the study. Tumor burden in the systemic MV4-11-Red.Fluc experiment was measured using an IVIS® spectrum from PerkinElmer by taking the total photon flux of the entire dorsal side of an individual mouse. Ten minutes prior to imaging, animals received intraperitoneally 0.2 mL of a 15-mg/mL solution of D-Luciferin (PerkinElmer, Catalog #122799) formulated in 100% phosphate-buffered saline. Animals were anesthetized using 3.5% isoflurane and maintained using 2%. Six days after inoculation, animals were imaged and randomized into vehicle and treatment groups at a total flux of ~1 × 10^8. A background control mouse that was tumor naive but received D-Luciferin was placed in the upper left corner of each image. The total flux from this animal was subtracted from the total flux of each animal present in the image.
For in vivo studies, maximal tumor growth inhibition (TGI) was calculated as the greatest treatment response using the following equation: Maximal TGI = (1 − mean tumor volume of the treated group/mean tumor volume of the vehicle control group) × 100. The tumor growth delay (TGD) percentage was determined as the percentage increase of the median time period for the treatment group to reach an arbitrary tumor volume of 1000 mm^3 relative to the vehicle control group. […] A power analysis was conducted using historical data to determine the number of animals required to yield significance of 0.05 at a 30% difference. There were no animals excluded. Data from experiments in vivo were analyzed using the student’s t-test for TGI values and the Mann–Whitney U test for TGD using Excel and GraphPad Prism. Fisher’s exact test was used to probe significance of differences in response frequency.

[1] = 6.25 mg/kg q7dx3 IV, mean(T)/mean(C)
[2] = 6.25 mg/kg q7dx3 IV, median(T)/median(C)
[3] = 6.25 mg/kg q7dx3 IV, SCID-beige mice
[4] = 6.25 mg/kg q7dx3 IV, OPM-2 (DSMZ) xenograft, SCID-beige mice
[5] = 25 mg/kg q7dx3 IV, mean(T)/mean(C)
[6] = 25 mg/kg q7dx3 IV, median(T)/median(C)
[7] = 25 mg/kg q7dx3 IV, SCID-beige mice
[8] = 25 mg/kg q7dx3 IV, OPM-2 (DSMZ) xenograft, SCID-beige mice
[9] = OPM-2 (DSMZ) xenograft, SCID-beige mice, 6.25 mg/kg q7dx3 IV
[10] = OPM-2 (DSMZ) xenograft, SCID-beige mice, 25 mg/kg q7dx3 IV

SMILES: Cc1c(Cl)c2c(Cl)c(C)c1-c1c(-c3ccc(F)cc3)sc3ncnc(c13)O[C@@H](C(=O)O)Cc1cc(ccc1OCc1ccnc(-c3ccc(OC[C@H]4COCCO4)cc3)n1)OC[C@@H](CN1CCN(C)CC1)O2 [Compound A-1747745]
- % Mortality (6.25 mg/kg IV q7dx3, clinical observation, SCID-beige mice, OPM-2 (DSMZ) xenograft): 100.00%
- Tumor Volume (mm³) Day 27, Mean (6.25 mg/kg q7dx3 IV): 468.28 mm³
- Tumor Volume (mm³) Day 27, Median (6.25 mg/kg q7dx3 IV): 424.66 mm³
- Tumor Volume (mm³) Day 27 (6.25 mg/kg q7dx3 IV): 369 mm³ and 671 mm³ and 322 mm³ and 348 mm³ and 352 mm³ and 673 mm³ and 481 mm³ and 531 mm³
- Body Weight Day 27, % T/C (mean) [1]: 97.79%
- Tumor Volume Day 27, % T/C (mean) [1]: 49.20%
- Body Weight Day 27, % T/C (median) [2]: 97.79%
- Tumor Volume Day 27, % T/C (median) [2]: 41.20%
- % T/C (mean), Tumor Volume Day 30 (6.25 mg/kg q7dx3 IV): 42.91%
- % T/C (median), Tumor Volume Day 30 (6.25 mg/kg q7dx3 IV): 42.72%
- Tumor Volume Day 30, Mean (6.25 mg/kg q7dx3 IV): 634.52 mm³
- Tumor Volume Day 30, Median (6.25 mg/kg q7dx3 IV): 618.80 mm³
- Tumor Volume (mm³) Day 30 [3]: 375 mm³ and 897 mm³ and 567 mm³ and 528 mm³ and 560 mm³ and 806 mm³ and 673 mm³ and 670 mm³
- Tumor Volume Day 34, Mean (6.25 mg/kg q7dx3 IV): 930.42 mm³
- Tumor Volume Day 34, Median (6.25 mg/kg q7dx3 IV): 940.62 mm³
- Tumor Volume (mm³) Day 34 [3]: 591 mm³ and 1061 mm³ and 690 mm³ and 703 mm³ and 1071 mm³ and 821 mm³ and 1142 mm³ and 1365 mm³
- Tumor Volume (mm³) Day 23 (individual animals) [4]: 264 mm³ and 376 mm³ and 277 mm³ (2×) and 196 mm³ and 349 mm³ and 392 mm³ and 253 mm³
- Tumor Volume Day 23, Mean [4]: 298.00 mm³
- Tumor Volume Day 23, Median [4]: 276.63 mm³
- % T/C (mean) (6.25 mg/kg q7dx3 IV, OPM-2 (DSMZ) xenograft, mean(T)/mean(C)): 68.08%
- % T/C (median) (6.25 mg/kg q7dx3 IV, OPM-2 (DSMZ) xenograft, median(T)/median(C)): 67.57%
- % Mortality (25 mg/kg IV q7dx3, clinical observation, SCID-beige mice, OPM-2 (DSMZ) xenograft): 0.00%
- % BW Loss (25 mg/kg IV q7dx3, day 27, clinical observation): -2% (day 27)
- Tumor Volume (mm³) Day 27, Mean (25 mg/kg q7dx3 IV): 75.56 mm³
- Tumor Volume (mm³) Day 27, Median (25 mg/kg q7dx3 IV): 79.55 mm³
- Tumor Volume (mm³) Day 27 (25 mg/kg q7dx3 IV): 109 mm³ and 83 mm³ and 115 mm³ and 60 mm³ and 69 mm³ and 4 mm³ and 77 mm³ and 88 mm³
- Body Weight Day 27, % T/C (mean) [5]: 101.28%
- Tumor Volume Day 27, % T/C (mean) [5]: 7.94%
- Body Weight Day 27, % T/C (median) [6]: 101.28%
- Tumor Volume Day 27, % T/C (median) [6]: 7.72%
- % T/C (mean), Tumor Volume Day 30 (25 mg/kg q7dx3 IV): 2.78%
- % T/C (median), Tumor Volume Day 30 (25 mg/kg q7dx3 IV): 0.28%
- Tumor Volume Day 30, Mean (25 mg/kg q7dx3 IV): 41.06 mm³
- Tumor Volume Day 30, Median (25 mg/kg q7dx3 IV): 4.00 mm³
- Tumor Volume (mm³) Day 30 [7]: 135 mm³ and 4 mm³ (5×) and 87 mm³ (2×)
- Tumor Volume Day 34, Mean (25 mg/kg q7dx3 IV): 4.00 mm³
- Tumor Volume Day 34, Median (25 mg/kg q7dx3 IV): 4.00 mm³
- Tumor Volume (mm³) Day 34 [7]: 4 mm³
- Tumor Volume (mm³) Day 23 (individual animals) [8]: 275 mm³ and 201 mm³ and 232 mm³ and 269 mm³ and 236 mm³ and 126 mm³ and 388 mm³ and 205 mm³
- Tumor Volume Day 23, Mean [8]: 241.42 mm³
- Tumor Volume Day 23, Median [8]: 233.81 mm³
- % T/C (mean) (25 mg/kg q7dx3 IV, OPM-2 (DSMZ) xenograft, mean(T)/mean(C)): 55.16%
- % T/C (median) (25 mg/kg q7dx3 IV, OPM-2 (DSMZ) xenograft, median(T)/median(C)): 57.11%
- Tumor Volume Day 20, Mean [9]: 237.41 mm³
- Tumor Volume Day 20, Median [9]: 234.06 mm³
- Tumor Volume (mm³) Day 20, individual animals (OPM-2 (DSMZ) xenograft, SCID-beige mice, 6.25 mg/kg q7dx3 IV, 6.25 mg/kg): 217 mm³ and 238 mm³ and 188 mm³ and 184 mm³ and 290 mm³ and 300 mm³ and 252 mm³ and 230 mm³
- Tumor Volume Day 20, % T/C (mean) (OPM-2 (DSMZ) xenograft, SCID-beige mice, 6.25 mg/kg q7dx3 IV, mean(T)/mean(C)): 99.97%
- Tumor Volume Day 20, % T/C (median) (OPM-2 (DSMZ) xenograft, SCID-beige mice, 6.25 mg/kg q7dx3 IV, median(T)/median(C)): 101.50%
- Body Weight Day 21, % T/C (mean) (OPM-2 (DSMZ) xenograft, SCID-beige mice, 6.25 mg/kg q7dx3 IV, Day 21, mean(T)/mean(C)): 100.00%
- Body Weight Day 21, % T/C (median) (OPM-2 (DSMZ) xenograft, SCID-beige mice, 6.25 mg/kg q7dx3 IV, Day 21, median(T)/median(C)): 100.00%
- Tumor Volume Day 20, Mean [10]: 237.54 mm³
- Tumor Volume Day 20, Median [10]: 238.03 mm³
- Tumor Volume (mm³) Day 20, individual animals (OPM-2 (DSMZ) xenograft, SCID-beige mice, 25 mg/kg q7dx3 IV, 25 mg/kg): 283 mm³ and 220 mm³ and 249 mm³ and 228 mm³ and 248 mm³ and 178 mm³ and 301 mm³ and 193 mm³
- Tumor Volume Day 20, % T/C (mean) (OPM-2 (DSMZ) xenograft, SCID-beige mice, 25 mg/kg q7dx3 IV, mean(T)/mean(C)): 100.03%
- Tumor Volume Day 20, % T/C (median) (OPM-2 (DSMZ) xenograft, SCID-beige mice, 25 mg/kg q7dx3 IV, median(T)/median(C)): 103.23%
